Measurements reported in patent publication US8859463B2, “Method for controlling noxious organisms” (Sumitomo Chemical Company, Limited, priority 2009, dated 2014).

What was measured:
Format in all cases: in vivo
Ipomoea hederacea [1] = test: Herbicidal activity, corn pot test, Example 16; settings: azole seed treatment none, flumioxazin 50 g/ha, twelve days after sowing
Protocol: In a glass container measuring 60 mm in inner diameter and 20 mm in height, 8 μl of a prothioconazole emulsifiable concentrate (emulsifiable concentrate containing 25% prothioconazole, manufactured by Bayer Crop Science Inc. under the trade name of Proline) and 20 corn seeds were placed. The prothioconazole emulsifiable concentrate was adhered to the corn seeds by shaking this plastic cup by hand. In the same manner, 8 μl of a difenoconazole emulsifiable concentrate (emulsifiable concentrate containing 25% difenoconazole, manufactured by Syngenta under the trade name of Score) was adhered to 20 corn seeds. In the same manner, 50 mg of a tebuconazole suspension (suspension containing 20% tebuconazole, manufactured by Hokko Chemical Industry under the trade name of ONLY ONE Flowable) was adhered to 20 corn seeds.
A plastic pot measuring 194 mm in inner diameter and 176 mm in height was filled with the soil. In this pot, 3 corn seeds were sown per 1 pot and 10 seeds of Ipomoea hederacea were sown per 1 pot. […]

Ipomoea hederacea [2] = test: Herbicidal effect, soybean Wagner pot test, Example 6; settings: clothianidin none; flumioxazin 25 g/ha; day 11 after sowing; scale 0 to 100
Description: A soil was packed in a 1/5000a Wagner pot. The above soybean seeds were sown in the Wagner pot at a rate of two seeds per pot, and the seeds of Ipomoea hederacea were sown in the pot at a rate of three seeds per pot.
On day 11 after sowing of the seeds of soybean and Ipomoea hederacea, the herbicidal effect and phytotoxicity were examined.

Ipomoea lacunosa = test: Herbicidal activity, corn pot test, Example 76; settings: metalaxyl-M none, flumioxazin 25 g/ha, ten days after sowing
Protocol: In a glass container measuring 60 mm in inner diameter and 20 mm in height, 15 mg of a metalaxyl-M emulsifiable concentrate (emulsifiable concentrate containing 33.3% metalaxyl-M, manufactured by Syngenta under the trade name of Apron XL) and 25 corn seeds were placed. After capping this glass container, the metalaxyl-M emulsifiable concentrate was adhered to the corn seeds by shaking the glass container by hand. In the same manner, 33 mg of the metalaxyl-M emulsifiable concentrate was adhered to the corn seeds.
A plastic pot measuring 194 mm in inner diameter and 176 mm in height was filled with the soil. In this pot, 2 corn seeds were sown per 1 pot and 10 seeds of Ipomoea lacunosa were sown per 1 pot. On the day of sowing of the corn seeds, after sowing the corn seeds, a water diluted solution (24.5 mg of product/liter) of a flumioxazin granular wettable powder (granular wettable powder containing 51% flumioxazin, manufactured by Valent USA Corporation under the trade name of Valor SX), a water diluted solution (66.7 mg of product/liter) of a sulfentrazone granular wettable powder (granular wettable powder containing 75% sulfentrazone manufactured by FMC Corporation under the trade name of Cover), a water diluted solution (15 mg/liter) of saflufenacil and a water diluted solution (100 mg/liter) of oxyfluorfen were uniformly sprayed over a surface of the soil in each amount described in Tables 28 to 31, using a sprayer. The water diluted solutions of saflufenacil and oxyfluorfen were prepared by dissolving each predetermined amount of saflufenacil and oxyfluorfen in acetone containing 2% (w/v) Tween 20 and diluting each solution with water so as to adjust the concentration of acetone to 10% by volume.
Ten days after sowing the seeds of corn and Ipomoea lacunosa, herbicidal activity was examined.

Spodoptera litura = test: Insecticidal effect (protective value), corn pot test, Example 4; settings: clothianidin none, day 3 after release
Protocol: The evaluation of the insecticidal effect was performed by determining the life and death of the insects at the time of the investigation and calculating the protective value according to the following equation; Protective Value (%)=100×(1−T/C) wherein the symbols have the following meanings;
C: The number of insects at the time of observation in an untreated section: and
T: The number of insects at the time of observation in a treated section.
In addition, the clothianidin suspension was attached to the corn seeds in a similar manner except that it was used in an amount of 217.5 μL.
Thereafter, the test pot was placed in a greenhouse. On day 22 after corn sowing, 10 fourth-instar larvae of Spodoptera litura were released in the pot and the whole pot was then covered with a nylon cloth.
On day 3 after release of Spodoptera litura, the insecticidal effect was examined.

Digitaria ciliaris = test: Herbicidal activity, soybean pot test, Example 75; settings: metalaxyl compound none, flumioxazin 50 g/ha, twelve days after sowing
Protocol: (§1) In a glass container measuring 60 mm in inner diameter and 20 mm in height, 12 mg of a metalaxyl emulsifiable concentrate (emulsifiable concentrate containing 25% metalaxyl, manufactured by Syngenta under the trade name of Subdue) and 20 soybean seeds were placed. After capping this glass container, the metalaxyl emulsifiable concentrate was adhered to the soybean seeds by shaking the glass container by hand. In the same manner, 47 mg of the metalaxyl emulsifiable concentrate was adhered to the soybean seeds. In the same manner, 9 mg of a metalaxyl-M emulsifiable concentrate (emulsifiable concentrate containing 33.3% metalaxyl-M manufactured by Syngeta under the trade name of Apron XL) was adhered to the soybean seeds. In the same manner, 40 mg of the metalaxyl-M emulsifiable concentrate was adhered to the soybean seeds.
(§2) A plastic pot measuring 194 mm in inner diameter and 176 mm in height was filled with the soil. In this pot, 2 soybean seeds were sown per 1 pot, 7 seeds of Ipomoea hederacea were sown per 1 pot, and 10 seeds of Digitaria ciliaris were sown per 1 pot. […]

Ipomoea hederacea [3] = test: Herbicidal activity, soybean pot test, Example 75; settings: metalaxyl compound none, flumioxazin 50 g/ha, twelve days after sowing
Protocol: as §1, §2

## C#CCN1C(=O)COc2cc(F)c(N3C(=O)C4=C(CCCC4)C3=O)cc21 [Flumioxazin, flumioxazin]
Ipomoea hederacea [1]
  Herbicidal activity on Ipomoea hederacea: 88
Ipomoea hederacea [2]
  Evaluation of Effect on Weeds: 25
Ipomoea lacunosa
  Herbicidal activity: 40
Spodoptera litura; flumioxazin 12.5 g/ha
  Protective Value: 0%
Spodoptera litura; flumioxazin 50 g/ha
  Protective Value: 5%
Digitaria ciliaris
  Herbicidal activity Digitaria ciliaris: 75
Ipomoea hederacea [3]
  Herbicidal activity Ipomoea hederacea: 55
